How the values were obtained:
[1] = test system: 4T1 tumor-bearing mice; test: 4T1 breast cancer model, UNO/Anti-PD-1 Single Dose Study; format: in vivo, mouse; details: single-dose of UNO alone 50,000 ppm 10 min (FIG. 12A)
Description: Preparation of 4T1 cells: Cancer cell suspension, in Hanks' Balanced Salt Solution (HBSS) (Biological Industries, Israel), at a concentration of 5.0×10^6 cells/ml was freshly prepared on the day of the cancer model induction. Cells were grown to a 70-80% confluency and harvested using trypsin. The cells were centrifuged at 1,200 revolutions per minute (rpm)—241 G for 8 minutes, then the pellet was re-suspended in 1 ml of HBSS. The cells were counted using an automated cell counter and a suspension with a concentration of 5.0×10^6 cells/ml was prepared. Cell viability must be above 90% before cell inoculation to the mice, otherwise new cells will need to be prepared. […]
UNO and N2 treatment—On the day of treatment, mice were anesthetized by an intraperitoneal (i.p.) injection of 100 mg/kg of ketamine and 10 mg/kg of xylazine hydrochloride solution. […] After treatment, all mice were warmed and closely monitored until complete recovery was observed. […]
Anti-mPD-1 dosing started one day after UNO treatment. […] The primary tumor volume was assessed using a digital caliper using a standard formula. In addition, mice survival was evaluated. Mice were routinely weighed and monitored for health conditions using mouse distress scoring. Mice reaching a tumor volume of ≥1500 mm3 and/or a score of 12 were humanely euthanized, and the time of death was recorded.

[2] = test system: AH-1+CD8+ T-cells (tumor antigen-specific CD8+ T-cells); test: Flow cytometry for tumor antigen-specific CD8+ T-cells in blood of CT26 tumor-bearing mice; format: in vivo, mouse; details: day 7 after UNO treatment
Description: Preparation of cancer cells for injection—Mouse colon carcinoma CT26.WT cells (ATCC, Cat no. CRL-2638) suspended in Hanks' Balanced Salt Solution (HBSS) (Biological Industries, Israel), at a concentration of 5.0×10^6 cells/ml, were freshly prepared on the day of cancer model induction. Cells were grown to 70% confluency and were harvested using trypsin (Biological Industries, Israel), and counted using a cell counter device. The cells were then centrifuged at 1,200 rpm (241×g) for 8 minutes, and the pellet was re-suspended in ice cold HBSS at 5.0×10^6 in 1 ml (5.0×10^5 cells in 100 μl solution). Cell viability was >90% as determined by trypan blue staining prior to inoculation to mice. At the point of inoculation, cells were at passage 8 at most. […]
UNO treatment—On the day of treatment, mice were anesthetized by an intra-peritoneal (i.p.) injection of 100 mg/kg ketamine and 10 mg/kg of xylazine hydrochloride solution. […] After treatment, all mice were warmed and closely monitored until complete recovery was observed. […]
Flow cytometry for tumor antigen-specific CD8+ T-cells—On day 7 after the UNO treatment, 100 μl of peripheral blood was collected by submandibular bleeding from each mouse into tubes containing 0.5M EDTA PH 8.0. […] Data was analyzed using the FlowJo software.

## [N]=O [UNO, nitric oxide]
[1]
  Primary tumors smaller compared to anti-mPD-1 alone: 13.2%
[2]
  Systemic levels of AH-1+CD8+ T-cells vs untreated or naive mice: higher
[2]; UNO 100,000 ppm 5 min, anti-mCTLA-4 5 mg/kg i.p. twice
  AH-1+CD8+ T-cells in the blood: detected in the blood of all mice

From patent publication US20250339462A1, “CANCER TREATMENT USING ULTRA-HIGH CONCENTRATION GASEOUS NITRIC OXIDE AND A CHECKPOINT INHIBITOR” (Beyond Air, Inc., priority 2022, published 2025)
